Bridge positions count the residues as written; N and C are the ends. Square brackets hold non-standard residues; d marks the D form. Peptide text beside a SMILES is read from it. * marks the point of attachment. NH(β-GlcNAc) = CC(=O)N[C@@H]1[C@@H](O)[C@H](O)[C@@H](CO)O[C@H]1N*; Dap = NC[C@H](N)C(=O)O
Key:
[1] = test system: BCC; conditions: 1 nM antagonist; cited from earlier work
[2] = test system: MDA-MB-231; conditions: cytostatic and not cytotoxic effect; cited from earlier work
[3] = test system: EGFR; experiment: EGFR phosphorylation by Western blot in MDA-MB-468 cells; format: cell-based; conditions: MDA-MB-468, 100 nM SP, time course
Protocol: FIG. 8A: to analyze the effects of SP on EGFR activation MDA-MB-468 cell line was treated with SP at 100 nM for the indicated times (in min). The levels of phospho-EGFR and phospho-Erk were determined by Western blot analysis. FIG. 8B: The effects of the inhibition of SP in the activation of EGFR were determined as for HER2. C means control.
For the analysis of substance P treatment on HER2 and EGFR activation, cells were seeded on dishes and growth until 80% confluence. After 24 hours of fetal deprivation, cells were treated at the indicated times with 100 nM SP. Cells were wash two times with cold PBS and rapidly frozen in a −80° C. freezer until protein extraction. […]
(§1) For protein extraction cells were lysated in ice-cold radioimmunoprecipitation assay buffer (Tris-HCl 50 mM, pH 7.4; NP-40 1%; Na-deoxycholate, 0.25%, NaCl 150 mM; EDTA 1 mM; PMSF 1 mM; proteinase inhibitors; Na3VO4 1 mM and NaF 1 mM) and sonicated for 10 seconds. After centrifugation (13000 g 5 min) supernatants were quantified for protein content. […] Chemiluminiscence of the bands was detected after ECL treatment (Amersham, Piscataway, N.J.) of membranes and subsequent analysis using a Fujifilm LAS3000 imaging system. Different intensities of bands were quantified using Image Gauge software, and correct Mr was compared with pre-stained protein standards (BioRad).

[4] = test system: cyclin D1, cdk4, cdk2, p21 and p27; experiment: Cell cycle protein expression by Western blot; format: cell-based; conditions: 100 nM SP or antibody 1/100 dilution; indicator of proliferative rate
Protocol: FIG. 1A: For the study of the effect of SP and its inhibition on cell cycle protein expression, cells were treated with 100 nM of SP or antibody anti-SP at 1/100 dilution for 48 hours. The different pattern of protein expression was determined by Western blot. C (control), SP, αSP (anti-SP antibody). FIG. 1B: For the time-course studies cells were treated at the same concentration of antibody for the times indicated. FIG. 1C: The ratio between p27/cyclin D1 (y-axis) was determined as an indicator of the proliferative rate of the cells.
For the analysis of substance P treatment on HER2 and EGFR activation, cells were seeded on dishes and growth until 80% confluence. […]
as §1

[5] = test system: HER2; experiment: HER2 phosphorylation and expression by Western blot in breast cancer cell lines; format: cell-based; conditions: SP 100 nM, FIG. 5
Protocol: In FIG. 5A, to analyze the effects of SP on HER2 activation different BC cell lines were treated with SP at 100 nM for the indicated times (in min). […] In FIG. 5B, for the dose-response study MDA-MB-453 cell line was treated at different times (minutes, x-axis) with 100, 200 or 500 nM of SP, and then activation of HER2 was determined. The results are expressed as a percentage of control (y-axis), and every experiment was done in duplicate.
In FIG. 6A cells were treated with 500 nM of SP or anti-SP antibody at 1/100 dilution for 48 hours, and the levels of the different proteins determined by Western blot. C means control. […] In FIG. 6B for the time-course studies, SKBR3 and BT474 cell lines were treated with anti-SP antibody for 24, 48 and 72 hours and protein analyzed by Western blot. […]
as §1, with “Different intensities of bands were quantified using Image Gauge software, and correct Mr was compared with pre-stained protein standards (BioRad).” left out

In the case of CC(=O)NC1(c2ccccc2)CCN(CC[C@H](CN(C)C(=O)c2ccccc2)c2ccc(Cl)c(Cl)c2)CC1 [SR 48968], the “reduction of BCC colony formation” value [1] is given as 60%.
For CC(=O)N[C@@H]1[C@@H](O)[C@H](O)[C@@H](CO)O[C@H]1NC(=O)C[C@@H]1NC(=O)[C@H](CC(C)C)NC(=O)[C@@H]2CNC(=O)C[C@H](NC1=O)C(=O)N[C@@H](Cc1c[nH]c3ccccc13)C(=O)N[C@@H](Cc1ccccc1)C(=O)N2 [MEN 11420] (cyclo(D(NH(β-GlcNAc))DWF[Dap]L); lactam 2-5), the “proliferation of tumor cell line MDA-MB-231” value [2] is listed as “induced an inhibition of proliferation”.
For “Arg-Pro-Lys-Pro-Gln-Gln-Phe-Phe-Gly-Leu-Met [substance P]”, the “activation of EGFR (phospho-EGFR)” value [3] was “Activation of EGFR was observed at 2 min, with a second activation point at minute 6”, the “p27/cyclin D1 ratio” value [4] was “caused a decrease in p27/cyclin D1 ratio” and the “transactivation of HER2” value [5] was “induces transactivation of HER2”.
For Cc1ccc(CC(=O)N(C)[C@H](Cc2ccc3ccccc3c2)C(=O)N[C@@H]2CCCC[C@@H]2NC(=O)c2c[nH]c3ccccc23)cc1 [MEN 11467], the “proliferation of tumor cell line MDA-MB-231” value [2] is given as “induced an inhibition of proliferation”.

Reference: patent US20110027296A1, “ANTIBODIES FOR TREATING CANCER” (UNIVERSIDAD DE BARCELONA, priority 2008, published 2011)
